One assay concerns Straub's tail. The assay can be described thus: Straub's tail test (morphine-induced). The class given is in vivo, male OF-1 mice. Particulars: Mus musculus, ip; mice, i.p., pretreatment 20 min before reading; 60 mg/kg i.p. morphine hydrochloride. As for the experimental part:
Method 2: Straub's tail test
The method of Novack [Drug Development Res. 2, 383 (1982)] was used with a slight modification. Groups consisting of 10 male OF-1 mice each weighing 19 to 21 g were intraperitoneally treated with 60 mg/kg of morphine hydrochloride. The formation of Straub's tail was judged 15 minutes after the morphine treatment. This was considered to be positive when the animal kept his tail permanently upwards at an angle being steeper than 45°. A pretreatment was carried out with various doses of the compound to be tested 20 minutes before the time of reading. The ED50 value, i.e. the dose inhibiting the positive response in 50% of the animals, was calculated by using the method of Litchfield and Wilcoxon.
(The above author found a good relation between the activity shown in the above test and the clinical effectivity of central muscle relaxants.)

The next assay relates to flexor reflex. The assay can be described thus: Investigation of the flexor reflex on anaesthetized cats. The following applies: chloralose-anaesthetized cats. In kind it is in vivo. An excerpt:
Method 3: Investigation of the flexor reflex on anaesthetized cats
Chloralose-anaesthetized cats of both sexes weighing 2.2-5.4 kg each were used in these experiments. The flexor reflex of the animals was studied by using the quantitative electromyographic method of Farkas et al [Pharmacol. Res. Comm. 20, Suppl. 1, 141 (1988)].
The results summarized in Table 1 are the values calculated from the average results of 4 to 8 experiments. The duration of effect was characterized by the time passing from the administration of this dose until the return to 75% of the control value (T75%).
The pharmacological activities of the compounds showing the most prominent effects together with the activity of tolperisone used as reference drug are shown in Table 1.

Assay [1] relates to GYKI-20039-induced tremor. Kind of assay: Test on the GYKI-20039-induced tremor. In kind it is in vivo, male CFLP mice. Particulars: Mus musculus, iv; mice, pretreatment time 0 min; dose causing 50% inhibition of tremor induced by 10 mg/kg i.p. GYKI-20039. As for the experimental part:
Method 1: Test on the GYKI-20039-induced tremor
Groups consisting of 10 to 20 male CFLP mice each weighing 19 to 21 g were intraperitoneally (i.p.) treated with 10 mg/kg of GYKI-20039 (test substance). Similarly to the structurally related compound of code number LON-954, GYKI-20039 induces a tremor on mice which is considered as the experimental model of the Parkinson's disease [Coward et al., Psychopharmacology 52, 165 (1977); Andrasi et al. IX Internat. Congress of Neuropathology, 1-98, 209, Vienna 1982]. The tremor induced by GYKI-20039 reaches a maximum strength 4 to 8 minutes following administration of the test substance, then it continuously diminishes and is finished within about 1 hour. According to our experiences obtained on ten known central muscle relaxants, this tremor can be inhibited by central muscle relaxants in a dose-dependent manner and is useful for the assay (evaluation) of the central muscle relaxant effects. After administration of the test substance, the mice were suspended on an isometric dynamometer in a light plastic box and the strength of the tremor was measured and quantified by electronic integration. The tremor strength of the mice was averaged in the 4th-8th minutes after treatment with the test substance.
The animals were pretreated with various doses of the muscle relaxants to be tested before the treatment with the test substance. […]

Where [2] appears, read: 10 mg/kg i.v., time until return to 75% of the control value.

The structures appear in SMILES notation. Marks after values point to notes of the source that are not given here.

A word on the ED50: it is the midpoint of the dose-response relation. `C[Si](C)(CN1CCCCC1)c1ccc(F)cc1.Cl` [Compound 5, N-([dimethyl-(4-fluorophenyl)silyl]methyl)piperidine hydrochloride]: the ED50 in the assay with Straub's tail worked out at 17.8 mg/kg. For the same molecule, in the assay with flexor reflex (setting [2]), the “Duration of effect T75%” value was above 180 min.

As to `C[Si](C)(CN1CCCC1)c1ccccc1.Cl` [Compound 3, N-[(dimethyl-phenylsilyl)methyl]pyrrolidine hydrochloride], the ED50 in the assay on Straub's tail was 37.7 mg/kg. Besides, the “Duration of effect T75%” value with flexor reflex (i.v., the effect of 5 mg/kg was investigated) is on record as 50** min.

For the molecule `C[Si](C)(CN1CCCC1)c1ccc(F)cc1.Cl` [Compound 6, N-([dimethyl-(4-fluorophenyl)silyl]methyl)pyrrolidine hydrochloride], the ED50 in the assay on Straub's tail turned out to be 26.9 mg/kg. In addition, the “Duration of effect T75%” value with flexor reflex (setting [2]) is above 180 min.

Consider `Cc1ccc(C(=O)C(C)CN2CCCCC2)cc1` (stereo not drawn) [Tolperisone, tolperisone, reference compound], for which the ED50 in assay [1] came to 10.2 mg/kg; in the assay with Straub's tail, 63 mg/kg. The “Duration of effect T75%” value in the assay on flexor reflex (setting [2]) is 50 min.

With `C[Si](C)(CN1CCCCC1)c1ccc(F)cc1.O=C(O)/C=C/C(=O)O` [Compound 4, N-([dimethyl-(4-fluorophenyl)silyl]methyl)piperidine fumarate], in the assay on Straub's tail, the ED50 turned out to be 19.1 mg/kg. Moreover, the “Duration of effect T75%” value with flexor reflex (setting [2]) is reported as 180 min.

On to `C[Si](C)(CN1CCCCC1)c1ccccc1.O=C(O)/C=C/C(=O)O` [Compound 1, N-[(dimethyl-phenylsilyl)methyl]piperidine fumarate], for which, in the assay on Straub's tail, the ED50 was 30.7 mg/kg.

The values are drawn from EP0472304A2, “Pharmaceutical compositions containing therapeutically active organosilane derivatives and process for preparing same” (Richter Gedeon Vegyészeti Gyár R.T., priority 1990, dated 1992).
